Counter-ions that a name gives are not always drawn. Like-named read-outs stand apart in the source and are kept apart here.
Biological target: T1, wild-type Androgen Receptor (AR-wt) (Homo sapiens, UniProt P10275)
T1 construct: expressed in transfected cells; host or cells: LNCaP
T1 sequence (P10275 1-920): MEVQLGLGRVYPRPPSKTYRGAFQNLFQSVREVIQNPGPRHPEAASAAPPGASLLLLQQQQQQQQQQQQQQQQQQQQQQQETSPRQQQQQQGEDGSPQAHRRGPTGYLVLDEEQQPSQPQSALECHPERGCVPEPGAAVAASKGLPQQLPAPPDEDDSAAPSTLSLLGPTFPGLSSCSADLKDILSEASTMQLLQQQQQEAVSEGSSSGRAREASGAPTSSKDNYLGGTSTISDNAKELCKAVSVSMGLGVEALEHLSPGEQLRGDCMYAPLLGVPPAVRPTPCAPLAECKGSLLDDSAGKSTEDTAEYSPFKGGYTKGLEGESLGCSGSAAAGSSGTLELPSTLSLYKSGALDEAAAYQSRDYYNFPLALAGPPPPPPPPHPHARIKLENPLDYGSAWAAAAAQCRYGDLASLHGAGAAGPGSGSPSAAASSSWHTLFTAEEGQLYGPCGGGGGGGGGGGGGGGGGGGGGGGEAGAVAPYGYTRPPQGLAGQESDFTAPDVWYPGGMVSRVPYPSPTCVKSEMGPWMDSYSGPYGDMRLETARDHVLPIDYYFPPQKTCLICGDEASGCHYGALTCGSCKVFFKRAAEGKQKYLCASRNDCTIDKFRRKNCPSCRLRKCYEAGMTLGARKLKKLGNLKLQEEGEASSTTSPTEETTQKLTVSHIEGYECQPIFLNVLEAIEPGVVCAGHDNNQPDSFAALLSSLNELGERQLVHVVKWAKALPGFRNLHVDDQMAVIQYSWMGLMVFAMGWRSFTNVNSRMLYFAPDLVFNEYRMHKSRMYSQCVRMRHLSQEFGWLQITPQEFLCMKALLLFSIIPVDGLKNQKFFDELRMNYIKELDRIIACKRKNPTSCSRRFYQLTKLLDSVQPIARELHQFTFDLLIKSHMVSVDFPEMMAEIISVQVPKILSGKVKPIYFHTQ
Experiment: AR reporter assay, LNCaP-AR-wt AG (agonist mode)
Type: cell-based
Details: for Emax: read-out: LNCaP-AR-wt AG MAX % Stim
Text: LNCaP AR (cs) and LNCaP F876L luciferase cell lines were generated by transduction of each cell line (description of cell line generation Joseph J D, Lu N, Qian J, Sensintaffar J, Shao G, Brigham D, Moon M, Maneval E C, Chen I, Darimont B, Hager J H. A clinically relevant androgen receptor mutation confers resistance to second-generation antiandrogens enzalutamide and ARN-509. Cancer Discov 2013; 3:1020-1029) with an Androgen Response Element Firefly Luciferase lentiviral construct at an MOI (multiplicity of infection) of 50 following the manufacturer's instructions (Qiagen). A stable pooled-population cell line was generated using puromycin (Life Technologies) selection at 1:10,000 v/v. The protocol below was used for both cell lines and for testing of the compounds of Formula (I) of the present invention.
LNCaP cells were grown to about 80% confluence, media removed and cells rinsed in Hank's balanced salt solution prior to separation from the plate with 0.05% Trypsin EDTA. Cells were lifted and trypsin negated in complete CSS (charcoal stripped serum) culture media. CSS was maintained on cells for 24 h prior to assay, at which time 5,000 cells/[…] were seeded in Greiner 384 well White/White Tissue Culture Treated Plates and incubated for a further 1-2 hours at 37° C., 5% CO2, prior to addition of 10 μL of 4× Test Compounds (compounds described herein) or Assay Controls (all diluted in complete media containing 10% css). A further 10 μL of 4× R-1881 Agonist Challenge (antagonist assay) or Buffer (agonist assay) was then added (all diluted in complete media containing 10% css). Agonist challenge was at 400 pM for WT assay and 600 pM for F876L assay. Plates containing cells and compounds herein were incubated for a further 20-24 hours at 37° C., 5% CO2 before addition of 40 μL/well of Steady-Glo Luciferase Assay System Reagent (Promega#E2520). After 1 h, plates were read for luminescence on a BMG Pherastar.
((Sample RLU−Ave Low Control RLU[DMSO/Buffer])/(Ave High Control RLU [1 μM R-1881]—Ave Low Control RLU[DMSO/Buffer]))*100.
EC/IC50 calculations were achieved utilizing calculated RLU data and data fitting macros. Data were fit using least-squares methods to the following formula: […]
As used herein: • pIC50 is defined as −Log10(IC50 expressed in [Molar]). • pEC50 is defined as −Log10(EC50 expressed in [Molar]). • MAX % Inh is defined as the maximum % inhibition of R1881 control response observed for a compound over the tested concentration range. • MAX % Stim is defined as the maximum % stimulation (agonist response) observed for a compound over the tested concentration range. • LNCaP-AR-wt ANT refers to the reporter assay using LNCaP cells stably transfected with the Androgen Response Element Firefly Luciferase lentiviral construct and wild-type Androgen Receptor (AR-wt) in Antagonist mode. • LNCaP-AR-wt AG refers to the reporter assay using LNCaP cells stably transfected with the Androgen Response Element Firefly Luciferase lentiviral construct and wild-type Androgen Receptor (AR-wt) in Agonist mode. • LNCaP-AR-F876L ANT refers to the reporter assay using LNCaP cells stably transfected with the Androgen Response Element Firefly Luciferase lentiviral construct and F876L mutant Androgen Receptor (AR-F876L) in Antagonist mode. • LNCaP-AR-F876L AG refers to the reporter assay using LNCaP cells stably transfected with the Androgen Response Element Firefly Luciferase lentiviral construct and F876L mutant Androgen Receptor (AR-F876L) in Agonist mode.

Structure (SMILES)	EC50 [µM]	Emax [%]	EC50 (agonist mode (buffer, no R-1881), -Log10(EC50 in Molar), read-out: LNCaP-AR-wt AG pEC50 (converted)) [µM]
CN1CCC(Oc2ncc(N3C(=S)N(c4ccc(C#N)c(C(F)(F)F)c4)C(=O)C34CCC4)cn2)CC1 [Compound 16, 4-(5-(2-((1-Methylpiperidin-4-yl)oxy)pyrimidin-5-yl)-8-oxo-6-thioxo-5,7-diazaspiro[3.4]octan-7-yl)-2-(trifluoromethyl)benzonitrile]	> 15.1	-0.1	–
CN1CCC(Oc2ccc(N3C(=S)N(c4ccc(C#N)c(C(F)(F)F)c4)C(=O)C3(C)C)cn2)CC1 [Compound 4, 4-(4,4-Dimethyl-3-(6-((1-methylpiperidin-4-yl)oxy)pyridin-3-yl)-5-oxo-2-thioxoimidazolidin-1-yl)-2-(trifluoromethyl)benzonitrile hydrochloride]	> 15.1	0.1	–
N#Cc1ccc(N2C(=O)C3(CCC3)N(c3ccc(OC4CCNCC4)nc3)C2=S)cc1C(F)(F)F [Compound 13, 4-(8-Oxo-5-(6-(piperidin-4-yloxy)pyridin-3-yl)-6-thioxo-5,7-diazaspiro[3.4]octan-7-yl)-2-(trifluoromethyl)benzonitrile hydrochloride]	> 15.1	0.5	–
COc1cc(N2C(=O)C3(CCC3)N(c3ccc(OC4CCN(C)CC4)nc3)C2=S)ccc1C#N [Compound 20, 2-Methoxy-4-(5-(6-((1-methylpiperidin-4-yl)oxy)pyridin-3-yl)-8-oxo-6-thioxo-5,7-diazaspiro[3.4]octan-7-yl)benzonitrile]	> 15.1	-0.1	–
CN1CCC(Oc2ncc(N3C(=S)N(c4ccc(C#N)c(C(F)(F)F)c4)C(=O)C3(C)C)cn2)CC1 [Compound 6, 4-(4,4-Dimethyl-3-(2-((1-methylpiperidin-4-yl)oxy)pyrimidin-5-yl)-5-oxo-2-thioxoimidazolidin-1-yl)-2-(trifluoromethyl)benzonitrile]	> 15.1	0.8	–
Cc1cc(N2C(=O)C3(CCC3)N(c3ccc(OC4CCN(C)CC4)cc3)C2=S)ccc1C#N [Compound 17, 2-Methyl-4-(5-(4-((1-methylpiperidin-4-yl)oxy)phenyl)-8-oxo-6-thioxo-5,7-diazaspiro[3.4]octan-7-yl)benzonitrile]	–	-0.1	> 15.1

— US20190337924A1, “SUBSTITUTED HYDANTOIN AND THIOHYDANTOIN DERIVATIVES AS ANDROGEN RECEPTOR ANTAGONISTS” (Janssen Pharmaceutica NV, priority 2016, published 2019)
